Measured values as given in PubChem BioAssay AID248 (DTP/NCI, 2004).
Values joined by “and” are separate entries in the source; they are usually repeats but may differ in a detail not shown here. Equal values may be shown once. Inconclusive results and toxic doses are left out. Cut-off read from the data, not from the text of the source: active = T/C of 150% or more; inactive = T/C below 125%.

Tested on: L1210 leukemia ip in BDF1 mice, survival T/C
Test: NCI In Vivo Anticancer Drug Screen. Data for tumor model L1210 Leukemia (intraperitoneal) in B6D2F1 (BDF1) mice
Settings: endpoint: mean survival time, higher = longer survival
Summary of the method: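 Mice bearing the transplanted tumor received compound or vehicle. Survival of the treated group was divided by that of the vehicle-treated control group to give the ratio.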

[1] = dose: 100.0 mg/kg/injection, schedule: Q01DX001 (ip), vehicle: Klucel (hydroxypropylcellulose) (HPC)
[2] = dose: 200.0 mg/kg/injection, schedule: Q01DX001 (ip), vehicle: Klucel (hydroxypropylcellulose) (HPC)
[3] = dose: 400.0 mg/kg/injection, schedule: Q01DX001 (ip), vehicle: Klucel (hydroxypropylcellulose) (HPC)
[4] = dose: 100.0 mg/kg/injection, schedule: Q04DX003 (ip), vehicle: saline with Tween-80
[5] = dose: 200.0 mg/kg/injection, schedule: Q04DX003 (ip), vehicle: saline with Tween-80
[6] = dose: 400.0 mg/kg/injection, schedule: Q04DX003 (ip), vehicle: saline with Tween-80
[7] = dose: 100.0 mg/kg/injection, schedule: Q01DX001 (ip), vehicle: saline with Tween-80
[8] = dose: 100.0 mg/kg/injection, schedule: Q04DX002 (ip), vehicle: saline with Tween-80
[9] = dose: 200.0 mg/kg/injection, schedule: Q01DX001 (ip), vehicle: saline with Tween-80
[10] = dose: 200.0 mg/kg/injection, schedule: Q04DX002 (ip), vehicle: saline with Tween-80
[11] = dose: 400.0 mg/kg/injection, schedule: Q01DX001 (ip), vehicle: saline with Tween-80
[12] = dose: 400.0 mg/kg/injection, schedule: Q04DX002 (ip), vehicle: saline with Tween-80

Measured: T/C

Cc1ccc(S(=O)(=O)OC2CCCCC2c2ccccc2C)cc1 (stereo unspecified)
inactive: dose: 100.0 mg/kg/injection, schedule: Q01DX001 (ip), vehicle: steriod suspending solution 105 % of control | dose: 200.0 mg/kg/injection, schedule: Q01DX001 (ip), vehicle: steriod suspending solution 112 % of control | dose: 400.0 mg/kg/injection, schedule: Q01DX001 (ip), vehicle: steriod suspending solution 98 % of control

NC(=O)/C(=C\c1ccc([N+](=O)[O-])o1)c1ccccc1
inactive: [1] 96 % of control | [2] 93 % of control | [3] 96 % of control

C[C@]12CC[C@H]3[C@@H](CCC4=CC(=O)CC[C@@]43C)[C@@H]1CC[C@@H]2OC(=O)Cc1ccc(N(CCCl)CCCl)cc1
inactive: dose: 100.0 mg/kg/injection, schedule: Q01DX001 (sc), vehicle: steriod suspending solution 94 % of control | dose: 200.0 mg/kg/injection, schedule: Q01DX001 (sc), vehicle: steriod suspending solution 96 % of control | dose: 400.0 mg/kg/injection, schedule: Q01DX001 (sc), vehicle: steriod suspending solution 91 % of control

CC(=O)Oc1c2ccccc2c(OC(C)=O)c2cc(/C=C/C(=O)O)ccc12
inactive: [4] 95 % of control | [5] 90 % of control | [6] 88 % of control

CCCCCCCCCCCCCCCC(=O)N(CCCC)CCCC
inactive: dose: 100.0 mg/kg/injection, schedule: Q01DX001 (ip), vehicle: carboxymethylcellulose (CMC) 98 % of control | dose: 100.0 mg/kg/injection, schedule: Q01DX009 (ip), vehicle: carboxymethylcellulose (CMC) 96 % of control and 110 % of control | dose: 100.0 mg/kg/injection, schedule: Q04DX003 (ip), vehicle: carboxymethylcellulose (CMC) 96 % of control | dose: 200.0 mg/kg/injection, schedule: Q01DX001 (ip), vehicle: carboxymethylcellulose (CMC) 102 % of control | dose: 200.0 mg/kg/injection, schedule: Q01DX009 (ip), vehicle: carboxymethylcellulose (CMC) 100 % of control and 110 % of control | dose: 200.0 mg/kg/injection, schedule: Q04DX003 (ip), vehicle: carboxymethylcellulose (CMC) 94 % of control | dose: 400.0 mg/kg/injection, schedule: Q01DX001 (ip), vehicle: carboxymethylcellulose (CMC) 102 % of control | dose: 400.0 mg/kg/injection, schedule: Q01DX009 (ip), vehicle: carboxymethylcellulose (CMC) 96 % of control and 104 % of control | dose: 400.0 mg/kg/injection, schedule: Q04DX003 (ip), vehicle: carboxymethylcellulose (CMC) 96 % of control

Cc1ccc(NC(=O)Oc2ccc([N+](=O)[O-])cc2)cc1S(=O)(=O)F
inactive: [7] 100 % of control and 101 % of control | dose: 100.0 mg/kg/injection, schedule: Q01DX009 (ip), vehicle: saline with Tween-80 98 % of control and 101 % of control | [8] 94 % of control and 99 % of control | [4] 98 % of control and 102 % of control | [9] 97 % of control and 100 % of control | dose: 200.0 mg/kg/injection, schedule: Q01DX009 (ip), vehicle: saline with Tween-80 103 % of control and 109 % of control | [10] 100 % of control and 90 % of control | [5] 94 % of control and 102 % of control | [11] 104 % of control and 107 % of control | [12] 96 % of control and 101 % of control | [6] 98 % of control

CCOC(=O)C1CC1(C)c1ccccc1 (stereo unspecified)
inactive: [8] 97 % of control | [10] 93 % of control | [12] 90 % of control

N/C(=N\[N+](=O)[O-])Nc1ccccn1
inactive: dose: 100.0 mg/kg/injection, schedule: Q04DX002 (ip), vehicle: Klucel (hydroxypropylcellulose) (HPC) 95 % of control | dose: 200.0 mg/kg/injection, schedule: Q04DX002 (ip), vehicle: Klucel (hydroxypropylcellulose) (HPC) 98 % of control | dose: 400.0 mg/kg/injection, schedule: Q04DX002 (ip), vehicle: Klucel (hydroxypropylcellulose) (HPC) 109 % of control

O=[N+]([O-])c1cccc(NSNc2cccc([N+](=O)[O-])c2)c1
inactive: dose: 50.0 mg/kg/injection, schedule: Q01DX001 (ip), vehicle: Klucel (hydroxypropylcellulose) (HPC) 100 % of control | [1] 98 % of control | [2] 87 % of control

c1ccc(C[n+]2cccc3ccccc32)cc1
inactive: dose: 6.25 mg/kg/injection, schedule: Q01DX009 (ip), vehicle: saline 100 % of control | dose: 6.25 mg/kg/injection, schedule: Q04DX003 (ip), vehicle: saline 97 % of control | dose: 12.5 mg/kg/injection, schedule: Q01DX009 (ip), vehicle: saline 101 % of control | dose: 12.5 mg/kg/injection, schedule: Q04DX002 (ip), vehicle: saline 98 % of control | dose: 12.5 mg/kg/injection, schedule: Q04DX003 (ip), vehicle: saline 106 % of control | dose: 25.0 mg/kg/injection, schedule: Q01DX009 (ip), vehicle: saline 100 % of control | dose: 25.0 mg/kg/injection, schedule: Q04DX002 (ip), vehicle: saline 102 % of control | dose: 25.0 mg/kg/injection, schedule: Q04DX003 (ip), vehicle: saline 101 % of control | dose: 50.0 mg/kg/injection, schedule: Q04DX002 (ip), vehicle: saline 105 % of control

CC1(C)c2ccccc2-c2nc3ccccc3nc2C1O (stereo unspecified)
inactive: [1] 94 % of control | [2] 97 % of control | [3] 103 % of control

O=c1[nH]nnc2nc(CCCc3ccccc3)[nH]c12
inactive: [7] 98 % of control | [9] 111 % of control | [11] 104 % of control

CC12CCC3C(CC=C4CC(O)CCC43C)C1C/C(=C\c1ccccc1)C2=O (stereo unspecified)
inactive: [7] 93 % of control | [9] 93 % of control | [11] 92 % of control

O=C1c2cc([N+](=O)[O-])ccc2-c2cc(Cl)c(Cl)cc21
inactive: dose: 200.0 mg/kg/injection, schedule: Q04DX003 (ip), vehicle: Klucel (hydroxypropylcellulose) (HPC) 91 % of control | dose: 400.0 mg/kg/injection, schedule: Q04DX003 (ip), vehicle: Klucel (hydroxypropylcellulose) (HPC) 94 % of control
